Measurements taken from ChEMBL document CHEMBL1201862, “PubChem BioAssay data set” (2004).
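Following 48 hours of exposure in 96-well plates, responses at five concentrations were used to interpolate endpoints linearly. Here, GI50 denotes the concentration required for 50% inhibition of growth.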 Active and inactive are the calls of the source. No stated cut-off is given here; in the data, active = GI50 up to about 1.1 µM and inactive = higher.

Legend:
Experiment in all cases: inhibition of tumour cell growth, NCI panel, 48 h
[1] = tested on: ACHN
[2] = tested on: CAKI-1
[3] = tested on: IGROV-1
[4] = tested on: A498
[5] = tested on: NCI-H23
[6] = tested on: HCC 2998
[7] = tested on: EKVX
[8] = tested on: HOP-92
[9] = tested on: CCRF-CEM
[10] = tested on: M14
[11] = tested on: OVCAR-5
[12] = tested on: SF-539
[13] = tested on: UACC-62
[14] = tested on: SK-MEL-5
[15] = tested on: SR

Measured: GI50

COC(=O)C1CCC2(CC1)NC(=O)NC2=O (stereo not given)
inactive: [1] > 100 µM | [2] > 100 µM | [3] > 100 µM | [4] > 100 µM | [5] > 100 µM | [6] > 100 µM | [7] > 100 µM | [8] > 100 µM | [9] > 100 µM | [10] > 100 µM | [11] > 100 µM | [12] > 100 µM | [13] > 100 µM | [14] > 100 µM | [15] > 100 µM

CCC(C)(C)NC1=C(NC(C)=O)C(=O)c2ccccc2C1=O
inactive: [1] 15.2 µM | [3] > 75 µM | [5] 18.9 µM | [6] > 75 µM | [7] > 75 µM | [9] 17 µM | [10] > 75 µM | [12] 24.4 µM | [13] 24.9 µM | [14] 13.5 µM | [15] 31.3 µM

CC(C)(C)N/N=C(\Cc1occc(=O)c1O)C(=O)Nc1ccc([N+](=O)[O-])cc1[N+](=O)[O-]
inactive: [1] > 100 µM | [2] > 100 µM | [3] > 100 µM | [4] > 100 µM | [5] > 100 µM | [7] 66.5 µM | [8] > 100 µM | [9] > 100 µM | [10] > 100 µM | [11] > 100 µM | [12] > 100 µM | [13] > 100 µM | [14] > 100 µM | [15] > 100 µM

CCCCCCCCSC(SCCCCCCCC)=C1C(=O)N(c2ccccc2)N=C1C
inactive: [1] 35.2 µM | [2] 26.9 µM | [3] 43.1 µM | [4] 24.3 µM | [5] 32.8 µM | [6] 71.3 µM | [7] 59.3 µM | [8] 31.8 µM | [9] 16.1 µM | [10] 83 µM | [11] 80.4 µM | [13] 24.5 µM | [14] 47 µM | [15] 14.9 µM

O=C1CCC(c2nc3cc(Cl)ccc3o2)C(=O)N1 (stereo not given)
inactive: [1] > 100 µM | [2] > 100 µM | [3] > 100 µM | [4] > 100 µM | [5] > 100 µM | [6] > 100 µM | [7] > 100 µM | [8] > 100 µM | [9] > 100 µM | [10] > 100 µM | [11] > 100 µM | [12] > 100 µM | [13] > 100 µM | [14] > 100 µM | [15] > 100 µM

COC(=O)/C=C\C1C(C(=O)OC)C2(C(=O)OC)CCC1(C(=O)OC)N2 (stereo not given)
inactive: [1] 9.33 µM | [2] 2.88 µM | [3] 26.9 µM | [4] 18.1 µM | [5] 18.7 µM | [6] 17.3 µM | [7] 27.2 µM | [8] 4.81 µM | [9] 4.15 µM | [10] 14.9 µM | [11] 20 µM | [12] 17.8 µM | [13] 15.9 µM | [14] 19.3 µM | [15] 5.37 µM

COC(=O)C(C(=O)C(=O)Nc1c(Cl)cc([N+](=O)[O-])cc1Cl)c1csc(-n2nc(C3=CCCCC3)cc2-c2ccccc2)n1 (stereo not given)
inactive: [1] 35.5 µM | [2] 46.9 µM | [4] 32.9 µM | [6] > 100 µM | [7] 8.47 µM | [8] 10.1 µM | [9] 73.5 µM | [10] > 100 µM | [11] 35 µM | [12] 34.8 µM | [13] 65.8 µM | [15] 22.5 µM

N#Cc1cnsc1
inactive: [1] > 100 µM | [2] > 100 µM | [3] > 100 µM | [4] > 100 µM | [5] > 100 µM | [6] > 100 µM | [7] > 100 µM | [8] > 100 µM | [9] > 100 µM | [10] > 100 µM | [11] > 100 µM | [12] > 100 µM | [13] > 100 µM | [14] > 100 µM | [15] > 100 µM

COC(=O)/C(=C1\OC(=O)C(c2ccc(Cl)cc2)=C1O)c1ccc(Cl)cc1
inactive: [1] 23.2 µM | [2] 23 µM | [3] 52 µM | [4] 16.9 µM | [5] 16 µM | [6] 28.7 µM | [7] 23.7 µM | [8] 17.8 µM | [9] 24.2 µM | [10] 31.2 µM | [11] 31.5 µM | [12] 23.4 µM | [13] 17.9 µM | [15] 25.8 µM

C[C@]12CCC(=O)C=C1CC[C@@H]1[C@@H]2[C@@H](O)C[C@@]2(C)[C@H]1CC[C@]2(O)C(=O)COC(=O)COCC(=O)O
inactive: [1] > 100 µM | [2] > 100 µM | [3] > 100 µM | [4] > 100 µM | [5] > 100 µM | [6] > 100 µM | [7] > 100 µM | [8] > 100 µM | [9] > 100 µM | [10] > 100 µM | [11] > 100 µM | [12] > 100 µM | [13] > 100 µM | [14] > 100 µM

O=C(O/N=C1\CCCC\C1=C/c1ccccc1)c1ccc([N+](=O)[O-])cc1
inactive: [1] 64.4 µM | [2] > 100 µM | [5] 87.5 µM | [6] > 100 µM | [7] > 100 µM | [8] > 100 µM | [9] > 100 µM | [10] > 100 µM | [11] > 100 µM | [12] 41.3 µM | [13] > 100 µM | [15] > 100 µM

CC(=O)OCC1OC(n2cnc3c(I)nc(I)nc32)C(OC(C)=O)C1OC(C)=O (stereo not given)
inactive: [1] 10 µM | [2] 2.02 µM | [3] 6.35 µM | [4] 22.2 µM | [5] 4.66 µM | [6] 5.21 µM | [7] 18.5 µM | [8] 3.18 µM | [9] 3.8 µM | [10] 17.2 µM | [11] 20.8 µM | [12] 16.1 µM | [13] 13.6 µM | [14] 13.3 µM | [15] 3.13 µM

COC1=CC(=O)[C@]2(C)[C@H](C1=O)C(C)[C@H]2c1ccccc1 (stereo not given in full)
inactive: [1] > 100 µM | [2] > 100 µM | [3] > 100 µM | [4] > 100 µM | [5] > 100 µM | [6] > 100 µM | [7] > 100 µM | [8] > 100 µM | [9] > 100 µM | [10] > 100 µM | [11] > 100 µM | [12] > 100 µM | [13] > 100 µM | [14] > 100 µM | [15] > 100 µM

O=C(C#Cc1cnc(O)nc1O)c1ccccc1Cl
inactive: [1] 17.3 µM | [2] 17.1 µM | [3] 19.5 µM | [4] 17.9 µM | [5] 17.1 µM | [6] 16.9 µM | [7] 20 µM | [8] 19.7 µM | [9] 3.94 µM | [10] 15.5 µM | [11] 19.7 µM | [12] 16.3 µM | [13] 16.4 µM | [14] 15 µM
